In patent US4843087A (priority 1986, dated 1989):
≈ marks a conversion by molar mass, not a printed value.

How the values were obtained:
Polio 2 = assay: microbe, parasite or virus in culture; format: cell-based, poliovirus; conditions: Enterovirus C, HeLa, read-out: Polio 2 MIC
[1] = system: human rhinovirus (HRV) serotypes; assay: microbe, parasite or virus in culture; format: cell-based; conditions: for MIC50: read-out: Rhinovirus MIC50; for IC (MIC80 of serotype panel): read-out: Rhinovirus MIC80

SMILES | MIC (Polio 2) | MIC50 [1] | IC (MIC80 of serotype panel) [1]
CCc1cc(C2=NCCO2)ccc1OCCCCCc1cc(C)no1 [Example 60, 5-{5-[4-(4,5-Dihydro-2-oxazolyl)-2-ethylphenoxy]pentyl}-3-methylisoxazole] | 0.24 µg/mL (≈ 0.701 µM) | 0.1 µg/mL (≈ 0.292 µM) | 0.7 µg/mL
Cc1cc(CCCCCCCOc2ccc(C3=NC(CO)CO3)cc2)on1 (centres unmarked) [Example 33, 5-{7-[4-(4,5-Dihydro-4-hydroxymethyl-2-oxazolyl)phenoxy]heptyl}-3-methylisoxazole] | 3 µg/mL (≈ 8.05 µM) | 51 µg/mL (≈ 137 µM) | 99 µg/mL
Cc1cc(CCCCCCCOc2ccc(C3=NCC(C)O3)cc2)on1 (centres unmarked) [34(b), 5-{7-[4-(4,5-Dihydro-5-methyl-2-oxazolyl)phenoxy]heptyl}-3-methylisoxazole] | 0.49 µg/mL (≈ 1.37 µM) | 0.2 µg/mL (≈ 0.561 µM) | 26.5 µg/mL
COc1cc(C2=NCCO2)cc(OC)c1OCCCCCc1cc(C)no1 [158(d), 5-{5-[4-(4,5-Dihydro-2-oxazolyl)-2,6-dimethoxyphenoxy]pentyl}-3-methylisoxazole] | 1 µg/mL (≈ 2.67 µM) | 2.1 µg/mL (≈ 5.61 µM) | 5 µg/mL
Cc1cc(CCCCCSc2ccc(C3=NCCO3)cc2)on1 [103(c), 5-{5-[[4-(4,5-Dihydro-2-oxazolyl)phenyl]thio]pentyl}-3-methylisoxazole] | 0.37 µg/mL (≈ 1.12 µM) | 0.57 µg/mL (≈ 1.72 µM) | 27.1 µg/mL
CCc1cc(C2=NCCO2)cc(C)c1OCCCCCc1cc(C)no1 [157(d), 5-{5-[4-(4,5-Dihydro-2-oxazolyl)-2-ethyl-6-methylphenoxy]pentyl}-3-methylisoxazole] | 3.3 µg/mL (≈ 9.26 µM) | 1.25 µg/mL (≈ 3.51 µM) | 2.5 µg/mL
Cc1cc(CCCCCOc2ccc(-c3cnco3)cc2)on1 [Example 96(b), 3-Methyl-5-{5[4-(5-oxazolyl)phenoxy]pentyl}isoxazole] | 0.095 µg/mL (≈ 0.304 µM) | 1.4 µg/mL (≈ 4.48 µM) | 2.5 µg/mL
Cc1cc(CCCCCOc2ccc(C3=NC(C)CO3)c(Cl)c2)on1 (centres unmarked) [Example 77, 5-{5-[3-Chloro-4-(4,5-dihydro-4-methyl-2-oxazolyl)phenoxy]pentyl}-3-methylisoxazole] | 0.05 µg/mL (≈ 0.138 µM) | 0.088 µg/mL (≈ 0.243 µM) | 1.47 µg/mL
Cc1cc(CCCCCOc2ccc(C3=NCCO3)cc2C=O)on1 [Example 70, 5-{5-[4-(4,5-Dihydro-2-oxazolyl)-2-formylphenoxy]pentyl}-3-methylisoxazole] | 0.1 µg/mL (≈ 0.292 µM) | 0.85 µg/mL (≈ 2.48 µM) | 1.6 µg/mL
Cc1cc(CCCCCOc2c(Cl)cc(C(=O)NCCCl)cc2Br)on1 [152(c), 3-Bromo-5-chloro-N-(2-chloroethyl)-4-{[5-(3-methyl-5-isoxazolyl)pentyl]oxy}benzamide] | 2.1 µg/mL (≈ 4.52 µM) | 0.14 µg/mL (≈ 0.302 µM) | 0.6 µg/mL
Cc1cc(CCCCCOc2ccc(C3=NCCO3)cc2C(F)F)on1 [Example 84, 5-{5-[2-Difluoromethyl-4-(4,5-dihydro-2-oxazolyl)phenoxy]pentyl}-3-methylisoxazole] | 0.11 µg/mL (≈ 0.302 µM) | 0.082 µg/mL (≈ 0.225 µM) | 0.72 µg/mL
Cc1cc(CCCCCCCOc2c(Cl)cc(C3=NCCO3)cc2Cl)on1 [Example 114, 5-{7-[2,6-Dichloro-4-(4,5-dihydro-2-oxazolyl)phenoxy]heptyl}-3-methylisoxazole] | 0.48 µg/mL (≈ 1.17 µM) | 0.22 µg/mL (≈ 0.535 µM) | 0.62 µg/mL
OCc1cc(CCCCCOc2c(Cl)cc(C3=NCCO3)cc2Cl)on1 [Example 116, 5-{5-[2,6-Dichloro-4-(4,5-dihydro-2-oxazolyl)phenoxy]pentyl}-3-isoxazolemethanol] | 3.1 µg/mL (≈ 7.76 µM) | 0.13 µg/mL (≈ 0.326 µM) | 0.5 µg/mL
Cc1cc(CCCOc2c(Cl)cc(C3=NCCO3)cc2Cl)on1 [Example 115, 5-{3-[2,6-Dichloro-4-(4,5-dihydro-2-oxazolyl)phenoxy]propyl}-3-methylisoxazole] | 3.1 µg/mL (≈ 8.73 µM) | 0.04 µg/mL (≈ 0.113 µM) | 0.58 µg/mL
COC(=O)CCC(=O)OCc1cc(CCCCCOc2c(Cl)cc(C3=NCCO3)cc2Cl)on1 [Example 148, 5-{5-[2,6-Dichloro-4-(4,5-dihydro-2-oxazolyl)phenoxy]pentyl}-3-isoxazolylmethyl methyl butanedioate] | 8.5 µg/mL (≈ 16.6 µM) | 0.17 µg/mL (≈ 0.331 µM) | 0.45 µg/mL
Cc1cc(CCCCC[S+]([O-])c2ccc(C3=NCCO3)cc2)on1 (centres unmarked) [Example 104, 5-{5-[[4-(4,5-Dihydro-2-oxazolyl)phenyl]sulfinyl]pentyl}-3-methylisoxazole] | 12.5 µg/mL (≈ 36.1 µM) | 9.85 µg/mL (≈ 28.4 µM) | 12.5 µg/mL
Cc1cc(CCCCCOc2ccc(-c3ncco3)cc2)on1 [Example 88, 3-Methyl-5-{5-[4-(2-oxazolyl)phenoxy]pentyl}isoxazole] | 0.025 µg/mL (≈ 0.08 µM) | 0.38 µg/mL (≈ 1.22 µM) | 25.2 µg/mL
Cc1cc(C(O)CCCCCCOc2ccc(C3=NCCO3)cc2)on1 (stereo not drawn) [Example 12, α-{6-[4-(4,5-dihydro-2-oxazolyl)phenoxy]hexyl}-3-methyl-5-isoxazolemethanol] | 0.08 µg/mL (≈ 0.223 µM) | – | –
Cc1cc(CCCCCOc2c(Cl)cc(-c3cnco3)cc2Cl)on1 [Example 98, 5-{5-[2,6-Dichloro-4-(5-oxazolyl)phenoxy]pentyl}-3-methylisoxazole] | 12.5 µg/mL (≈ 32.8 µM) | 0.21 µg/mL (≈ 0.551 µM) | 2.8 µg/mL
Cc1cc(CCCCCOc2ccc(C3=NCCO3)cc2N)on1 [Example 49, 5-{5-[2-Amino-4-(4,5-dihydro-2-oxazoyl)phenoxy]pentyl}-3-methylisoxazole] | 2 µg/mL (≈ 6.07 µM) | 1.1 µg/mL (≈ 3.34 µM) | 4.6 µg/mL

SMILES | MIC (Polio 2) | MIC50 [1] | IC (MIC80 of serotype panel) [1]
Cc1cc(CCCCCOc2ccc(C3=NCCO3)cc2F)on1 [Example 20, 5-{5-[4-(4,5-Dihydro-2-oxazolyl)-2-fluorophenoxy]pentyl}-3-methylisoxazole] | 0.1 µg/mL (≈ 0.301 µM) | 0.38 µg/mL (≈ 1.14 µM) | 26.9 µg/mL
Cc1cc(CCCCOc2ccc(C3=NCCO3)cc2Cl)on1 [Example 24, 5-{4-[2-Chloro-4-(4,5-dihydro-2-oxazolyl)phenoxy]butyl}-3-methylisoxazole] | 1.7 µg/mL (≈ 5.08 µM) | 0.087 µg/mL (≈ 0.26 µM) | 1.2 µg/mL
C=Cc1cc(C2=NCCO2)ccc1OCCCCCc1cc(C)no1 [Example 141, 5-{5-[2-Ethenyl-4-(4,5-dihydro-2-oxazolyl)phenoxy]pentyl}-3-methylisoxazole] | 0.23 µg/mL (≈ 0.676 µM) | 0.25 µg/mL (≈ 0.734 µM) | 0.54 µg/mL
Cc1cc(CCCCCOc2c(F)cc(C3=NCCO3)cc2F)on1 [159(c), 5-{5-[4-(4,5-Dihydro-2-oxazolyl)-2,6-difluorophenoxy]-pentyl}-3-methylisoxazole] | 0.12 µg/mL (≈ 0.342 µM) | 0.15 µg/mL (≈ 0.428 µM) | 0.66 µg/mL
Cc1cc(CCCCCOc2c(C)cc(-c3cocn3)cc2C)on1 [Example 144, 5-{5-[2,6-Dimethyl-4-(4-oxazolyl)phenoxy]pentyl}-3-methylisoxazole] | 12.5 µg/mL (≈ 36.7 µM) | 0.14 µg/mL (≈ 0.411 µM) | 1.1 µg/mL
CCC(=O)Nc1cc(C2=NCCO2)ccc1OCCCCCc1cc(C)no1 [Example 102, 5-{5-[4-(4,5-Dihydro-2-oxazolyl)-2-(propionylamino)phenoxy]pentyl}-3-methylisoxazole] | 12.5 µg/mL (≈ 32.4 µM) | 12.5 µg/mL (≈ 32.4 µM) | 99 µg/mL
Cc1cc(CCCCCOc2c(Br)cc(C3=NCCO3)cc2Br)on1 [Example 74, 5-{5-[2,6-Dibromo-4-(4,5-dihydro-2-oxazolyl)phenoxy]pentyl}-3-methylisoxazole] | 2 µg/mL (≈ 4.24 µM) | 0.13 µg/mL (≈ 0.275 µM) | 0.59 µg/mL
OCc1cc(CCCCCCCOc2ccc(C3=NCCO3)cc2)on1 [Example 11, 5-{7-[4-(4,5-Dihydro-2-oxazolyl)phenoxy]heptyl}-3-isoxazolemethanol] | 0.02 µg/mL (≈ 0.0558 µM) | – | –
Cc1cc(CCCCCCCOc2ccc(C3=NCCO3)cc2C=O)on1 [Example 69, 5-{7-[4-(4,5-Dihydro-2-oxazolyl)-2-formylphenoxy]heptyl}-3-methylisoxazole] | 0.44 µg/mL (≈ 1.19 µM) | – | –
Cc1cc(CCCOCOCCOc2ccc(C3=NCCO3)cc2)on1 [Example 73, 5-{3-[[2-[4-(4,5-Dihydro-2-oxazolyl)phenoxy]ethoxy]methoxy]propyl}-3-methylisoxazole] | 0.46 µg/mL (≈ 1.28 µM) | – | –
Cc1cc(CCCCCOc2cccc(C3=NCCO3)c2)on1 [Example 30, 5-{5-[3-(4,5-Dihydro-2-oxazolyl)phenoxy]pentyl}-3-methylisoxazole] | > 0.2 µg/mL | – | –
Cc1cc(CCC2CCC(COc3ccc(C4=NCCO4)cc3)CC2)on1 (centres unmarked) [101 (b), 5-{2-[4-[[4-(4,5-Dihydro-2-oxazolyl)phenoxy]methyl]cyclohexyl]ethyl}-3-methylisoxazole] | 0.65 µg/mL (≈ 1.76 µM) | – | –
Cc1cc(CCCCCCCCOc2ccc(C3=NCCO3)cc2Cl)on1 [Example 22, 5-{8-[2-Chloro-4-(4,5-dihydro-2-oxazolyl)phenoxy]octyl}-3-methylisoxazole] | 1.1 µg/mL (≈ 2.81 µM) | – | –
Cc1cc(CCCCCOc2ccc(C3=NCCO3)cc2Cl)no1 [Example 37, 3-{5-[2-Chloro-4-(4,5-dihydro-2-oxazolyl)phenoxy]pentyl}-5-methylisoxazole] | 0.4 µg/mL (≈ 1.15 µM) | – | –
CC(=O)OCc1cc(CCCCCCCOc2ccc(C3=NCCO3)cc2)on1 [Example 28, 5-{7-[4-(4,5-Dihydro-2-oxazolyl)phenoxy]heptyl}-3-isoxazolemethanol acetate] | 0.007 µg/mL | – | –
Cc1cc(CCCCOc2ccc(C3=NCCO3)cc2)on1 [21 (b), 5-{4-[4-(4,5-Dihydro-2-oxazolyl)phenoxy]butyl}-3-methylisoxazole] | 0.5 µg/mL (≈ 1.66 µM) | – | –
Cc1cc(CCCCCCCOc2ccc(-c3ncco3)cc2)on1 [87(b), 3-Methyl-5-{7-[4-(2-oxazolyl)phenoxy]heptyl}isoxazole] | 0.04 µg/mL (≈ 0.118 µM) | – | –
Cc1cc(CCCCCCCOc2ccc(C3=NC[C@@H](C)O3)cc2)on1 [Example 123, (R)-5-{7-[4-(4,5-Dihydro-5-methyl-2-oxazolyl)phenoxy]heptyl}-3-methylisoxazole] | 1.01 µg/mL (≈ 2.83 µM) | – | –
Cc1cc(CCC=CCOc2ccc(C3=NCCO3)cc2)on1 [Example 55, 5-{5-[4-(4,5-Dihydro-2-oxazolyl)phenoxy]-3-pentenyl}-3-methylisoxazole] | – | 49.6 µg/mL (≈ 159 µM) | 99 µg/mL
